Measurements as given in PubChem BioAssay AID720577 (The Scripps Research Institute Molecular Screening Center, 2013).
“And” between values parts separate entries of the source, which are not always exact repeats. Equal values may be shown once. The source made the active and inactive calls. No rule for the calls is given here.

biological target: CCHF virus vOTU protease domain (L polyprotein); experiment: CCHF virus vOTU protease inhibition, Pep AMC substrate counterscreen, fluorescence, confirmatory IC50 (AID 720577); settings: purified vOTU

| Structure (SMILES) | IC50 |
| --- | --- |
| O=C(NCCCO)c1ccc2nc(-c3ccco3)c(-c3ccco3)nc2c1 | inactive |
| CC(C)NC1=C(Cl)C(=O)c2ccccc2C1=O | inactive |
| Cc1oc2c(c1C(=O)O)C(=O)c1ccccc1C2=O | inactive |
| CC(=O)[C@H]1[C@@H]2C(=O)N(c3cccc(Cl)c3)C(=O)[C@@H]2[C@H]2c3ccccc3C=CN21 | inactive |
| C[n+]1c(-c2ccccc2)c2cc(N)ccc2c2ccc(N)cc21 | inactive |
| C[n+]1c(-c2ccccc2)cc2c(=Cc3ccccc3)c3ccccc3n21 | 3.65 µM |
| C[n+]1c(-c2ccccc2)cc2c(=Cc3ccc([N+](=O)[O-])cc3)c3ccccc3n21 | 4.14 µM |
| O=C(N/N=C1\C/C(=N\NC(=O)c2ccncc2)c2ccccc21)c1ccncc1 | 1.81 µM |
| COc1cc2c(cc1O)[C@@H]1Cc3ccc(OC)c(O)c3CN1CC2 | inactive |
| COc1cc(CCNC2=CC(=O)c3ncccc3C2=O)ccc1O | inactive |
| COC(CNC(=O)c1ccc2c3c(onc13)-c1ccccc1C2=O)OC | inactive |
| O=C(O)CCCNc1cc(N2CCN(C(=O)c3ccco3)CC2)c2noc3c2c1C(=O)c1ccccc1-3 | inactive |
| COc1cccc2c1C(=O)c1c(O)c3c(c(O)c1C2=O)C[C@@](O)(C(=O)CO)C[C@@H]3O[C@H]1C[C@H](N)[C@H](O)[C@H](C)O1 | inactive |
| CCOC(=O)c1c(C)[nH]c2c1-c1ccccc1C(=O)C2=O | 0.662 µM |
| O=C(/C=C/c1ccc([N+](=O)[O-])s1)N1CCCCC1 | > 115 µM (inactive) |
| Cc1cc2c(cc1C)C(=O)C(Br)=C(N)C2=O | inactive |
| COc1ccccc1N=Nc1c(O)[nH]c(=S)[nH]c1=O | inactive |
| CC(=O)[C@@H]1[C@@H]2C(=O)N(c3ccc(F)c(Cl)c3)C(=O)[C@@H]2C2c3ccccc3C=CN21 (some centres undefined) | inactive |
| Nc1ccc(N2CCCCC2)c2nonc12 | inactive |
| CCC(C)n1c(NC(=O)c2ccccc2)c(C#N)c2nc3ccccc3nc21 (centres undefined) | > 12.7 µM (inactive) |
| NC1=CC(=O)C(=O)c2cccnc21 | 4.94 µM |
| S=C(Nc1ccc2nsnc2c1)N1CCCCCC1 | inactive |

| Structure (SMILES) | IC50 |
| --- | --- |
| O=C(NC1=C(NC2CCS(=O)(=O)C2)C(=O)c2ccccc2C1=O)c1ccccc1 (centres undefined) | inactive |
| COc1cc(C(=O)c2nccc3cc(OC)c(OC)cc23)c([N+](=O)[O-])cc1OC | 4.04 µM |
| N#CC1=C(S)N(c2ccccc2)C(c2ccc(-c3ccc(Cl)c(Cl)c3)o2)NC1=O (centres undefined) | > 115 µM (inactive) |
| O=C(/C=C/c1ccc(O)cc1)c1ccc(NC2=C(N3CCCCC3)C(=O)c3ccccc3C2=O)cc1 | inactive |
| Cc1ccccc1-c1cc2c(nn1)-c1ccccc1C2=O | 2.23 µM |
| CCCCCCCCCCCCCCCC[n+]1ccccc1 | 7.79 µM and 8.46 µM and 6.99 µM |
| NC1=C(Cl)C(=O)c2ccc(S(N)(=O)=O)cc2C1=O | 0.387 µM |
| CC1OC2CC(=O)OC2C2=C1C(=O)c1c(O)cccc1C2=O (centres undefined) | inactive |
| CC1=C(SCc2ccccc2)C(=O)c2ccccc2C1=O | 9.91 µM |
| c1coc(-c2nnc(-c3ccco3)nn2)c1 | inactive |
| Cc1ccc2c(c1C)-c1c(ccc(C)c1C)C(=O)C2=O | inactive |
| O=C1C=C(NCc2ccccc2)c2ccccc2C1=O | inactive |
| O=C1C(SCCO)=C(SCCO)C(=O)c2ccccc21 | 7.34 µM |
| Cc1c(C=O)c(Cl)n(C)c(=O)c1C#N | inactive |
| CCCCn1c(NS(=O)(=O)c2ccccc2)c(C(=O)OCC)c2nc3ccccc3nc21 | > 115 µM (inactive) |
| O=C1C=C(N2CC2)c2ccccc2C1=O | 8.1 µM |
| O=S(=O)(Nc1c(S(=O)(=O)c2ccccc2)c2nc3ccccc3nc2n1C1CCCCC1)c1ccccc1 | > 115 µM (inactive) |
| O=S(=O)(N=C1C=CC(=NS(=O)(=O)c2ccccc2)c2ccccc21)c1ccccc1 | inactive |
| C[n+]1cccc2cccc([O-])c21 | inactive |
| O=C(O)CSc1cc(NS(=O)(=O)c2cccc([N+](=O)[O-])c2)c2ccccc2c1O | 7.61 µM |
| CCOCCCNC1=C(Cl)C(=O)c2ccccc2C1=O | inactive |
| S=C(Nc1ccc(Cl)cc1)Nc1cccc2cnccc12 | 8.74 µM |

| Structure (SMILES) | IC50 |
| --- | --- |
| O=C1NNC(c2ccccc2)=N/C1=C\c1ccccc1Cl | inactive |
| Cc1ccc(CNc2ccc(O)cc2)cc1 | inactive |
| Cc1ccccc1NC1=C/C(=N\S(=O)(=O)c2cccs2)c2ccccc2C1=O | 1.04 µM |
| C=CCN(CC=C)C(=S)Nc1ccc2nsnc2c1 | inactive |
| CC(C)(C)c1cc[n+](C2=C([O-])c3ccccc3C(=O)/C2=N\S(=O)(=O)c2cccs2)cc1 | inactive |
| O=C(COC(=O)c1ccc([N+](=O)[O-])s1)Nc1ncc(C(F)(F)F)cc1Cl | inactive |
| O=C(NC1=CC(=O)c2ccccc2C1=O)c1ccccc1 | inactive |
| COc1ccc(N2C(=O)[C@@H]3[C@H](C2=O)[C@H]2c4ccccc4C=CN2[C@@H]3C(C)=O)cc1 | inactive |
| O=C1C=C(O)c2[nH]c(=O)ccc2C1=O | inactive |
| Cn1c2ccccc2c2cc(/C=N/NC(=O)c3cc(O)ccc3O)ccc21 | inactive |
| CCCCCCCCCCCCCCCCn1cc[n+](C)c1 | 7.06 µM |
| COc1ccc(Cc2nccc3cc(OC)c(OC)cc23)cc1OC | inactive |
| O=C(O)c1cccc(NC2=C(n3nnc4ccccc43)C(=O)c3ccccc3C2=O)c1 | inactive |
| Cc1oc2c(c1C(=O)N1CCOCC1)C(=O)c1ccccc1C2=O | inactive |
| CN(C)CCCNc1cc(O)c2ncccc2c1 | inactive |
| CCCCCCCCCCOC(=O)Cn1c(COc2ccc(Cl)cc2)[n+](C)c2ccccc21 | 6.42 µM |
| CC1(OC(=O)C2CCCC2)C(=O)C=C2C=C(c3ccsc3)N(CCCCO)C=C2C1=O (centres undefined) | inactive |
| COc1cc(NCCCCCCN)c2ncccc2c1OC | 5.97 µM |
| O=[N+]([O-])c1cc(O)c2ncccc2c1 | inactive |
| O=C(O)c1cc(O)c2c(c1)[C@H]([C@H]1c3cc(C(=O)O)cc(O)c3C(=O)c3c(O[C@@H]4O[C@H](CO)[C@@H](O)[C@H](O)[C@H]4O)cccc31)c1cccc(OC3O[C@H](CO)[C@@H](O)[C@H](O)[C@H]3O)c1C2=O (some centres undefined) | 7.68 µM |
